Assay results from article PMC12028158, “Synthesis and In Vitro Evaluation of the Anticancer Effect of Novel Phosphonium Vindoline Derivatives” (International Journal of Molecular Sciences, 2025).

Key:
Format in all cases: cell-based
SR = test: NCI60 one-dose screen; details: Homo sapiens, 10 μM, one-dose, read-out: Growth percent
Melanoma panel = test: NCI60 five-dose screen, panel mean; details: Homo sapiens; mean over Melanoma panel; read-out: GI50 Mean
HS 578T = test: NCI60 one-dose screen; details: Homo sapiens; HS 578T, 10 μM, one-dose; read-out: Growth percent
NCI-H460 = test: NCI60 five-dose screen; details: Homo sapiens; NCI-H460, Non-small Cell Lung Cancer; read-out: GI50
T-47D [1] = test: NCI60 one-dose screen; details: Homo sapiens, T47D; T-47D, 10 μM, one-dose; read-out: Growth percent
EKVX [2] = test: NCI60 five-dose screen; details: Homo sapiens, Non-small Cell Lung Cancer, read-out: GI50
NCI-H522 [3] = test: NCI60 one-dose screen; details: Homo sapiens; NCI-H522, 10 μM, one-dose; read-out: Growth percent
HOP-62 [4] = test: NCI60 five-dose screen; details: Homo sapiens; HOP-62, Non-small Cell Lung Cancer; read-out: GI50
SW-620 = test: NCI60 five-dose screen; details: Homo sapiens; SW-620, Colon Cancer; read-out: GI50
EKVX [5] = test: NCI60 one-dose screen; details: Homo sapiens, 10 μM, one-dose, read-out: Growth percent
IGROV1 [6] = test: NCI60 one-dose screen; details: Homo sapiens, IGROV-1; IGROV1, 10 μM, one-dose; read-out: Growth percent
Leukemia panel = test: NCI60 five-dose screen, panel mean; details: Homo sapiens; mean over Leukemia panel; read-out: GI50 Mean
UO-31 = test: NCI60 one-dose screen; details: Homo sapiens; UO-31, 10 μM, one-dose; read-out: Growth percent
K-562 = test: NCI60 five-dose screen; details: Homo sapiens, K562; K-562, Leukemia; read-out: GI50
U251 [7] = test: NCI60 five-dose screen; details: Homo sapiens, U-251, U251, CNS Cancer; read-out: GI50
UACC-62 = test: NCI60 one-dose screen; details: Homo sapiens; UACC-62, 10 μM, one-dose; read-out: Growth percent
MDA-MB-231/ATCC = test: NCI60 one-dose screen; details: Homo sapiens; MDA-MB-231/ATCC, 10 μM, one-dose; read-out: Growth percent
U251 [8] = test: NCI60 one-dose screen; details: Homo sapiens, U-251; U251, 10 μM, one-dose; read-out: Growth percent
CCRF-CEM [9] = test: NCI60 one-dose screen; details: Homo sapiens, 10 μM, one-dose, read-out: Growth percent
T-47D [10] = test: NCI60 five-dose screen; details: Homo sapiens, T47D; T-47D, Breast Cancer; read-out: GI50
CCRF-CEM [11] = test: NCI60 five-dose screen; details: Homo sapiens, Leukemia, read-out: GI50
RPMI-8226 = test: NCI60 five-dose screen; details: Homo sapiens; RPMI-8226, Leukemia; read-out: GI50
LOX IMVI [12] = test: NCI60 five-dose screen; details: Homo sapiens, Melanoma, read-out: GI50
UACC-257 = test: NCI60 one-dose screen; details: Homo sapiens; UACC-257, 10 μM, one-dose; read-out: Growth percent
MCF7 = test: NCI60 one-dose screen; details: Homo sapiens; MCF7, 10 μM, one-dose; read-out: Growth percent
SK-MEL-2 = test: NCI60 one-dose screen; details: Homo sapiens; SK-MEL-2, 10 μM, one-dose; read-out: Growth percent
SF-539 = test: NCI60 one-dose screen; details: Homo sapiens; SF-539, 10 μM, one-dose; read-out: Growth percent
ACHN = test: NCI60 five-dose screen; details: Homo sapiens, Renal Cancer, read-out: GI50
MDA-MB-468 = test: NCI60 five-dose screen; details: Homo sapiens, MDA-MB-468, MDA-MB-468, Breast Cancer; read-out: GI50
HCC-2998 = test: NCI60 five-dose screen; details: Homo sapiens; HCC-2998, Colon Cancer; read-out: GI50
DU-145 = test: NCI60 one-dose screen; details: Homo sapiens; DU-145, 10 μM, one-dose; read-out: Growth percent
HOP-62 [13] = test: NCI60 one-dose screen; details: Homo sapiens; HOP-62, 10 μM, one-dose; read-out: Growth percent
Prostate Cancer panel = test: NCI60 five-dose screen, panel mean; details: Homo sapiens; mean over Prostate Cancer panel; read-out: GI50 Mean
OVCAR-5 = test: NCI60 five-dose screen; details: Homo sapiens; OVCAR-5, Ovarian Cancer; read-out: GI50
IGROV1 [14] = test: NCI60 five-dose screen; details: Homo sapiens, IGROV-1; IGROV1, Ovarian Cancer; read-out: GI50
RXF 393 = test: NCI60 five-dose screen; details: Homo sapiens; RXF 393, Renal Cancer; read-out: GI50
A498 = test: NCI60 one-dose screen; details: Homo sapiens; A498, 10 μM, one-dose; read-out: Growth percent
MDA-MB-435 = test: NCI60 one-dose screen; details: Homo sapiens; MDA-MB-435, 10 μM, one-dose; read-out: Growth percent
CAKI-1 = test: NCI60 five-dose screen; details: Homo sapiens; CAKI-1, Renal Cancer; read-out: GI50
NCI-H522 [15] = test: NCI60 five-dose screen; details: Homo sapiens; NCI-H522, Non-small Cell Lung Cancer; read-out: GI50
TK-10 = test: NCI60 five-dose screen; details: Homo sapiens; TK-10, Renal Cancer; read-out: GI50
HOP-92 = test: NCI60 one-dose screen; details: Homo sapiens; HOP-92, 10 μM, one-dose; read-out: Growth percent
LOX IMVI [16] = test: NCI60 one-dose screen; details: Homo sapiens, 10 μM, one-dose, read-out: Growth percent
PC-3 = test: NCI60 five-dose screen; details: Homo sapiens; PC-3, Prostate Cancer; read-out: GI50
HL-60(TB) = test: NCI60 one-dose screen; details: Homo sapiens, HL-60, read-out: Growth percent
786-0 = test: NCI60 one-dose screen; details: Homo sapiens; 786-0, 10 μM, one-dose; read-out: Growth percent

## CCC12C=CCN3CCC4(c5ccc(OC)cc5N(C)C4C(O)(C(=O)OC)C1OC(=O)c1ccc(C[P+](c4ccccc4)(c4ccccc4)c4ccccc4)cc1)C32 (stereo not shown) [compound 12]
SR
  activity at 10 µM: -58.3%
Melanoma panel
  GI50: 1030 nM
HS 578T
  activity at 10 µM: -36.6%
NCI-H460
  GI50: 1660 nM
T-47D [1]
  activity at 10 µM: 7.1%
EKVX [2]
  GI50: 2030 nM
NCI-H522 [3]
  activity at 10 µM: -17.4%
HOP-62 [4]
  GI50: 2670 nM
SW-620
  GI50: 1500 nM
EKVX [5]
  activity at 10 µM: 28.7%
IGROV1 [6]
  activity at 10 µM: -69.6%
Leukemia panel
  GI50: 770 nM
UO-31
  activity at 10 µM: 88.3%
K-562
  GI50: 448 nM
U251 [7]
  GI50: 644 nM
UACC-62
  activity at 10 µM: -86.9%
MDA-MB-231/ATCC
  activity at 10 µM: -91.5%
U251 [8]
  activity at 10 µM: -72.6%
CCRF-CEM [9]
  activity at 10 µM: -46.4%
T-47D [10]
  GI50: 525 nM
CCRF-CEM [11]
  GI50: 1300 nM
RPMI-8226
  GI50: 325 nM
LOX IMVI [12]
  GI50: 1820 nM
UACC-257
  activity at 10 µM: -67.6%
MCF7
  activity at 10 µM: -52.8%
SK-MEL-2
  activity at 10 µM: -77.8%
SF-539
  activity at 10 µM: -90.6%
ACHN
  GI50: 18500 nM
MDA-MB-468
  GI50: 186 nM
HCC-2998
  GI50: 991 nM
DU-145
  activity at 10 µM: 16.9%
HOP-62 [13]
  activity at 10 µM: -32.7%
Prostate Cancer panel
  GI50: 1130 nM
OVCAR-5
  GI50: 1990 nM
IGROV1 [14]
  GI50: 885 nM
RXF 393
  GI50: 1140 nM
A498
  activity at 10 µM: 70.2%
MDA-MB-435
  activity at 10 µM: -88.8%
CAKI-1
  GI50: 3260 nM
NCI-H522 [15]
  GI50: 491 nM
TK-10
  GI50: 2840 nM
HOP-92
  activity at 10 µM: -73.4%
LOX IMVI [16]
  activity at 10 µM: -39.8%
PC-3
  GI50: 657 nM
HL-60(TB)
  activity at 10 µM: -69%
786-0
  activity at 10 µM: -47.8%
